# Data taken from patent US4794122A, “Novel benzimidazolyl-thiomethyl-benzothiazoles” (Uclaf; Roussel, priority 1986, dated 1988).
# pIC50: −log10 of the molar value.
# Molecular target: T1, 5-lipoxygenase (Rattus norvegicus, UniProt P12527)
# T1 construct: prelabelled rat peritoneal neutrophils; endogenous in cells; host or cells: rat peritoneal neutrophils
# T1 sequence (P12527 1-673): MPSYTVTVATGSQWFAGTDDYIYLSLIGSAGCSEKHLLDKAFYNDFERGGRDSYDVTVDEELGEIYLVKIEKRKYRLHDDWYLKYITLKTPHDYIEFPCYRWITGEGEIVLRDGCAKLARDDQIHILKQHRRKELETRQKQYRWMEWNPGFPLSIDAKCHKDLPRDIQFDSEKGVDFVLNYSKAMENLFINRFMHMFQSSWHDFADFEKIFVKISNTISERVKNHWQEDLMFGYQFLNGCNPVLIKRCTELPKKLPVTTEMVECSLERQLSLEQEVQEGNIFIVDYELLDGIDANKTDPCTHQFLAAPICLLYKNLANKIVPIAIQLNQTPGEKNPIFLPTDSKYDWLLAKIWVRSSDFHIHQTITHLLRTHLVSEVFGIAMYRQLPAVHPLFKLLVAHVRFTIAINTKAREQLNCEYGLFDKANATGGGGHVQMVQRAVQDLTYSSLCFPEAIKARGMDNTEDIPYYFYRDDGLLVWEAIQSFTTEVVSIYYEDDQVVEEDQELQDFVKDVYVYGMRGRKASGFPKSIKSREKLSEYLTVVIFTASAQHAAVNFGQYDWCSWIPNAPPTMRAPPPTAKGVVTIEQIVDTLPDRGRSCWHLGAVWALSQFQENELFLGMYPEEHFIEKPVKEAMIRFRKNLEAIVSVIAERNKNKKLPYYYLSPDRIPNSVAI
# Test: Inhibition of Ca++ ionophore (A23187)-induced release of 5-lipoxygenase products (leukotriene B4 and 5-HETE) from [14C]-arachidonic acid prelabelled rat peritoneal neutrophils
# Assay type: cell-based
# Details: A23187-induced release of leukotriene B4 and 5-HETE, determined graphically from dose response curves, read-out: micro molecular concentration of the compounds causing a 50% inhibition of the control response for 5-lipoxygenase
# Procedure: Inhibition of Ca^++ ionophore (A23187)-induced release of 5-lipoxygenase products (leukotriene B4 and 5-HETE) from [^14 C]-arachidonic acid prelabelled rat peritoneal neutrophils was determined by a modification of the method of Ahnfelt-Ronne et al [Biochemical Pharmacology, Vol. 31, (1982), No. 16, p. 2619-2624].
row,pIC50,Structure (SMILES)
1,5.46,"c1ccc2[nH]c(SCc3nc4ccccc4s3)nc2c1 [Example 1, 2-(1H-benzimidazol-2-yl-thiomethyl)-benzothiazole]"
2,6.23,"Clc1ccc2[nH]c(SCc3nc4ccccc4s3)nc2c1 [Example 2, 2-(5-chloro-1H-benzimidazol-2-yl-thiomethyl)benzothiazole]"
3,6.64,"Clc1cc2nc(SCc3nc4ccccc4s3)[nH]c2cc1Cl [Example 3, 2-(5,6-dichloro-1H-benzimidazol-2-yl-thiomethyl)benzothiazole]"
